{
  "source": "patent US8486398B2",
  "about": "“Anticoagulant antidotes comprising antibodies that bind dabigatran and/or related compounds” (Boehringer Ingelheim International GmbH, priority 2010, dated 2013)",
  "key": {"[1]": {"conditions": "compared with dabigatran; cited from earlier work"}, "thrombin": {"biological_target": "thrombin (Bos taurus, UniProt P00735)", "experimental": "Briefly human plasma is obtained by taking whole blood into 3.13% sodium citrate. This is then centrifuged to obtain platelet free plasma and transferred to a separate tube and frozen until required on the day of the assay. Plasma is thawed at 37° C. on the day of the assay.\nThe thrombin clotting time is performed as follows. First thrombin is diluted to manufacturer's specification (3 IU/mL thrombin) in the buffer provided (Dade Behring Test kit) and prewarmed to 37° C. It is used within 2 hrs of being prepared. All assays were performed on a commercially available CL4 clotting machine (Behnk Electronics, Norderstadt, Germany). Fifty μL of plasma is pipetted into provided cuvettes with a magnetic stirrer and allowed to stir for 2 min in the well preheated to 37° C. in the CL4 machine. At this point 100 μL of the thrombin solution is added and the time required for the plasma sample to clot is recorded automatically by the CL4. Dabigatran is preincubated for 5 min in plasma in the provided cuvettes, before adding thrombin and starting the measurement. If antibody is also tested (up 50 μL of stock solution), there is a further 5 minute incubation at 37° C. before beginning clotting (i.e. 10 min total incubation with dabigatran, 5 min total incubation with antibody and then clotting is initiated with thrombin)."}},
  "note": "Values joined by “and” are separate entries in the source; they are usually repeats but may differ in a detail not shown here. Equal values may be shown once. Read-outs that look alike come from different tables or passages of the source.",
  "data": [
    {"smiles": "Cn1c(CNc2ccc(C(=N)N)cc2)nc2cc(C(=O)N(CCC(=O)OC3OC(C(=O)O)C(O)C(O)C3O)c3ccccn3)ccc21", "note": "(stereo not drawn) [1-O-acylglucuronide]", "values": [
      {"measurement": "prolongation of the activated partial thromboplastin time", "setting": "[1]", "result": "equipotent prolongation of the activated partial thromboplastin time compared with dabigatran"}
    ]},
    {"smiles": "Cn1c(CNc2ccc(C(=N)N)cc2)nc2cc(C(=O)N(CCC(=O)O)c3ccccn3)ccc21", "note": "[dabigatran, N-[2-(4-Amidinophenylaminomethyl)-1-methyl-1H-benzimidazol-5-ylcarbonyl]-N-(2-pyridyl)-beta-alanine]", "values": [
      {"measurement": "thrombin clotting time", "setting": "thrombin; 200 nM dabigatran preincubated with human plasma, baseline 10.9-11 seconds", "result": "51 s and 63.7 s"},
      {"measurement": "elevation in clotting time over baseline", "setting": "thrombin; 200 nM dabigatran, human plasma", "result": "~5", "unit": "fold"},
      {"measurement": "increase in clotting time over baseline", "setting": "thrombin; 500 nM dabigatran, human plasma", "result": "~10", "unit": "fold"},
      {"measurement": "thrombin clotting time", "setting": "thrombin; 500 nM dabigatran, human plasma, baseline 10.9 seconds", "result": 111.7, "unit": "s"},
      {"measurement": "concentration dependence of thrombin clotting time", "setting": "thrombin; increasing concentrations of dabigatran, human plasma", "result": "concentration-dependent increase in the thrombin clotting time"}
    ]}
  ]
}
